Measurements published in patent publication US11760773B2, “Small molecule drug conjugates of gemcitabine monophosphate” (MaveriX Oncology, Inc., priority 2018, dated 2023).

What was measured:
[1] = Compound 1 and gemcitabine plasma PK in the male cynomolgus monkey (study h); type: in vivo; details: plasma
Experimental: Objectives: to compare the plasma pharmacokinetics and stability of the Compound 1 with Int 1-4 and in plasma following a single intravenous infusion administration of Compound 1 at 5 mg/kg and 10 mg/kg with equimolar gemcitabine at 2.28 mg/kg in male cynomolgous monkeys.
PK measurements: compare PK parameters C0, CL, Vdss, Cmax, tmax, t1/2, AUC(0-t), AUC(0-inf), MRT(0-t), MRT(0-inf) for Compound 1 and Int 1-4 with gemcitabine.

[2] = Int 1-4 dog plasma PK (study j); type: in vivo; details: male beagle dog
Experimental: Objectives: to compare the plasma pharmacokinetics and stability of Int 1-4 in plasma following single intravenous infusion administration of t 1-4 at 10 mg/kg and 20 mg/kg in the male Beagle dog.

[3] = Comparative plasma PK of Compound 1 versus Int 1-4 in male CD-1 mice (study b); type: in vivo
Experimental: Objectives: to compare the plasma pharmacokinetics and stability of Compound 1 with its non-phosphorylated SMDC analog (Int 1-4) and in plasma following a single intravenous infusion administration of Compound 1 at 11.6 mg/kg and 23.2 mg/kg with Int 1-4 (formulation F1 & F2) at 10.0 mg/kg in male CD-1 mice
PK measurements: compare PK parameters C0, CL, Vdss, Cmax, tmax, t1/2, AUC(0-t), AUC(0-inf), MRT(0-t), MRT(0-inf) for Compound 1 and Int 1-4

[4] = Int 1-4 and gemcitabine comparative PK in male cynomolgus monkey (study g); type: in vivo; details: plasma, male cynomolgus monkey
Experimental: Objectives: to compare the plasma pharmacokinetics and stability of Int 1-4 versus gemcitabine in plasma following single intravenous infusion administration of Int 1-4 at 5 mg/kg and 10 mg/kg with equimolar gemcitabine at 2.65 mg/kg and 5.29 mg/kg in male cynomolgous monkeys
PK measurements: compare PK parameters C0, CL, Vdss, Cmax, tmax, t1/2, AUC(0-t), AUC(0-inf), MRT(0-t), MRT(0-inf) for Int 1-4 with gemcitabine

[5] = Comparative PK of Int 1-4 versus gemcitabine in rat plasma (study i); type: in vivo, Sprague-Dawley rats; details: plasma, Sprague-Dawley rat
Source text: PK measurements: compare PK parameters C0, CL, Vdss, Cmax, tmax, t1/2, AUC(0-t), AUC(0-inf), MRT(0-t), MRT(0-inf) for Int 1-4 and gemcitabine.

[6] = Int 1-4 plasma PK in the male cynomolgus monkey (study f); type: in vivo
Experimental: Objectives: to compare the plasma pharmacokinetics and stability of Int 1-4 in plasma following single intravenous infusion administration of Int 1-4 at 5 mg/kg and 10 mg/kg in the male cynomolgus monkey
PK measurements: compare PK parameters C0, CL, Vdss, Cmax, tmax, t, AUC(0-t), AUC(0-inf), MRT(0-t), MRT(0-inf) for Int 1-4

[7] = after iv gemcitabine 2.28 mg/kg
[8] = after iv Int 1-4 10 mg/kg (study j)
[9] = after iv Int 1-4 20 mg/kg (study j)
[10] = after iv Int 1-4 10.0 mg/kg, Formulation 1
[11] = after iv Int 1-4 10.0 mg/kg, Formulation 2
[12] = after iv Int 1-4 5 mg/kg (study g)
[13] = after iv Int 1-4 10 mg/kg (study g)
[14] = after iv gemcitabine 2.65 mg/kg
[15] = after iv gemcitabine 4.47 mg/kg
[16] = after iv Int 1-4 5 mg/kg (study f)
[17] = after iv Int 1-4 10 mg/kg (study f)

`O=c1ccn(C2OC(CO)C(O)C2(F)F)c(=O)[nH]1` (stereo not shown) [dFdU] gave an AUC0-last ([1]; after iv Compound 1 5 mg/kg) of 3397 ng·h/mL, an AUC(0-inf) ([1]; after iv Compound 1 5 mg/kg) of 8767 ng·h/mL and a Cmax ([1]; after iv Compound 1 5 mg/kg) of 321 ng/mL. It also gave an MRT0-inf ([1]; after iv Compound 1 5 mg/kg) of 34.42 h, an MRT0-last ([1]; after iv Compound 1 5 mg/kg) of 8.98 h and a Tmax ([1]; after iv Compound 1 5 mg/kg) of 0.39 h. For the same compound, the t1/2 ([1]; after iv Compound 1 5 mg/kg) was 24.00 h, the AUC0-last [1, 7] was 12467 ng·h/mL and the AUC(0-inf) [1, 7] was 17600 ng·h/mL. The Cmax [1, 7] was 2153 ng/mL, the MRT0-inf [1, 7] was 18.06 h and the MRT0-last [1, 7] was 8.21 h. For the same compound, the Tmax [1, 7] was 0.04 h, the t1/2 [1, 7] was 12.90 h and the AUC0-last [2, 8] was 13167 ng·h/mL. For the same compound, the AUC(0-inf) [2, 8] was 14300 ng·h/mL, the Cmax [2, 8] was 1173 ng/mL and the MRT0-inf [2, 8] was 15.33 h. It also gave an MRT0-last [2, 8] of 9.20 h, a Tmax [2, 8] of 3.33 h and a t1/2 [2, 8] of 10.0 h. It also gave an AUC0-last [2, 9] of 31267 ng·h/mL, an AUC(0-inf) [2, 9] of 40233 ng·h/mL and a Cmax [2, 9] of 2873 ng/mL. The MRT0-inf [2, 9] was 15.97 h, the MRT0-last [2, 9] was 9.27 h and the Tmax [2, 9] was 2.00 h. The t1/2 [2, 9] was 10.53 h, the AUC0-last ([3]; after iv Compound 1 11.6 mg/kg) was 967 ng·h/mL and the AUC(0-inf) ([3]; after iv Compound 1 11.6 mg/kg) was 786 ng·h/mL. For the same compound, the Cmax ([3]; after iv Compound 1 11.6 mg/kg) was 220 ng/mL, the MRT0-inf ([3]; after iv Compound 1 11.6 mg/kg) was 3.81 h and the MRT0-last ([3]; after iv Compound 1 11.6 mg/kg) was 3.70 h. For the same compound, the Tmax ([3]; after iv Compound 1 11.6 mg/kg) was 3.25 h, the t1/2 ([3]; after iv Compound 1 11.6 mg/kg) was 2.38 h and the AUC0-last ([3]; after iv Compound 1 23.2 mg/kg) was 1960 ng·h/mL. The AUC(0-inf) ([3]; after iv Compound 1 23.2 mg/kg) was 1830 ng·h/mL, the Cmax ([3]; after iv Compound 1 23.2 mg/kg) was 378 ng/mL and the MRT0-inf ([3]; after iv Compound 1 23.2 mg/kg) was 4.48 h. It also gave an MRT0-last ([3]; after iv Compound 1 23.2 mg/kg) of 3.65 h, a Tmax ([3]; after iv Compound 1 23.2 mg/kg) of 4.00 h and a t1/2 ([3]; after iv Compound 1 23.2 mg/kg) of 2.86 h. For the same compound, the AUC0-last [3, 10] was 983 ng·h/mL, the AUC(0-inf) [3, 10] was 1124 ng·h/mL and the Cmax [3, 10] was 213 ng/mL. For the same compound, the MRT0-inf [3, 10] was 4.67 h, the MRT0-last [3, 10] was 3.59 h and the Tmax [3, 10] was 4.00 h. For the same compound, the t1/2 [3, 10] was 3.06 h, the AUC0-last [3, 11] was 1106 ng·h/mL and the AUC(0-inf) [3, 11] was 1625 ng·h/mL. The Cmax [3, 11] was 236 ng/mL, the MRT0-inf [3, 11] was 5.89 h and the MRT0-last [3, 11] was 3.95 h. The Tmax [3, 11] was 4.00 h, the t1/2 [3, 11] was 4.15 h and the AUC0-last [4, 12] was 4117 ng·h/mL. The AUC(0-inf) [4, 12] was 5555 ng·h/mL, the Cmax [4, 12] was 302 ng/mL and the MRT0-inf [4, 12] was 24.01 h. For the same compound, the MRT0-last [4, 12] was 10.31 h, the Tmax [4, 12] was 1.69 h and the t1/2 [4, 12] was 16.86 h. The AUC0-last [4, 13] was 5120 ng·h/mL, the AUC(0-inf) [4, 13] was 7903 ng·h/mL and the Cmax [4, 13] was 595 ng/mL. For the same compound, the MRT0-inf [4, 13] was 18.02 h, the MRT0-last [4, 13] was 8.30 h and the Tmax [4, 13] was 0.67 h. For the same compound, the t1/2 [4, 13] was 12.87 h, the AUC0-last [4, 14] was 7703 ng·h/mL and the AUC(0-inf) [4, 14] was 8837 ng·h/mL. The Cmax [4, 14] was 1973 ng/mL, the MRT0-inf [4, 14] was 9.35 h and the MRT0-last [4, 14] was 6.41 h. The Tmax [4, 14] was 0.09 h, the t1/2 [4, 14] was 5.89 h and the AUC0-last ([5]; after iv Int 1-4 10.0 mg/kg) was 288 ng·h/mL. The Cmax ([5]; after iv Int 1-4 10.0 mg/kg) was 66.5 ng/mL, the MRT0-last ([5]; after iv Int 1-4 10.0 mg/kg) was 5.55 h and the Tmax ([5]; after iv Int 1-4 10.0 mg/kg) was 8.00 h. For the same compound, the AUC0-last [5, 15] was 1085 ng·h/mL, the Cmax [5, 15] was 222 ng/mL and the MRT0-last [5, 15] was 5.25 h. For the same compound, the Tmax [5, 15] was 8.00 h, the C0 [6, 16] was 296 ng/mL and the MRT0-last [6, 16] was 30.60 h. It also gave a t1/2 [6, 16] of 0.67 h, a C0 [6, 17] of 747 ng/mL and an MRT0-last [6, 17] of 63.00 h. It also gave a t1/2 [6, 17] of 0.75 h.
